Reference: the NIST ThermoML archive (doi:10.1016/j.jct.2009.04.004)

Experiment: molar heat capacity at constant pressure
Conditions: 101.33 kPa, Crystal, Small sample (50 mg) DSC

[Na+].[O]=[Re](=[O])(=[O])[O-] [sodium perrhenate]
Conditions | molar heat capacity at constant pressure [J/K/mol]
298.15 K | 118.8
323.15 K | 122.2
348.15 K | 125.5
373.15 K | 128.9
398.15 K | 131.8
423.15 K | 135.1
448.15 K | 137.2
473.15 K | 139.7
498.15 K | 142.3
523.15 K | 144.8
548.15 K | 146.9
573.15 K | 148.1
598.15 K | 149.4
